Measured values as given in patent US4311699A, “Aminoacid derivatives of cephalosporin compounds” (priority 1980, dated 1982).
Converted amounts (≈) assume the structure as drawn.

Columns and labels:
Assay in all cases: in vitro antibacterial activity, minimal inhibitory concentration
Assay type in all cases: cell-based
Serr. marces. = tested on: Serr. marces.
From the text: (§1) The compounds of the invention are new chemical compounds that are used as pharmacological agents and especially as broad spectrum antibacterial agents. They are active in vitro against strains of both gram-positive and gram-negative bacteria.
(§2) Minimal Inhibitory Concentration (μg/ml)

Entero. cloacae = conditions: Enterobacter cloacae
From the text: as §1, §2

Pseudomonas #28 = conditions: Pseudomonas #28, in vitro; read-out: Minimal Inhibitory Concentration
From the text: as §1, §2

Pseudomonas UI 18 = conditions: UI18; Pseudomonas UI 18, in vitro
From the text: as §1, §2

E. coli Vogel = conditions: Escherichia coli
From the text: as §1, §2

E. coli Brig = conditions: Escherichia coli
From the text: as §1, §2

Staph. aureus UC-76 = conditions: Staphylococcus aureus, UC76; Staph. aureus UC-76, in vitro
From the text: as §1, §2

Prot. vulg. = tested on: Prot. vulg.
From the text: as §1, §2

Staph. aureus S18733 = conditions: Staphylococcus aureus
From the text: as §1, §2

Strep. fec. = tested on: Strep. fec.
From the text: as §1, §2

Pseudomonas BRK 12-4-4 = conditions: BRK1244; Pseudomonas BRK 12-4-4, in vitro
From the text: as §1, §2

Klebs. pneu. = tested on: Klebs. pneu.
From the text: as §1, §2

| Structure (SMILES) | MIC (Serr. marces.) | MIC (Entero. cloacae) | MIC (Pseudomonas #28) | MIC (Pseudomonas UI 18) | MIC (E. coli Vogel) | MIC (E. coli Brig) | MIC (Staph. aureus UC-76) | MIC (Prot. vulg.) | MIC (Staph. aureus S18733) | MIC (Strep. fec.) | MIC (Pseudomonas BRK 12-4-4) | MIC (Klebs. pneu.) |
| --- | --- | --- | --- | --- | --- | --- | --- | --- | --- | --- | --- | --- |
| CC(=O)NC(C)C(=O)Nc1ccc(-c2ncc(C(=O)N[C@@H](C(=O)N[C@@H]3C(=O)N4C(C(=O)O)=C(COC(N)=O)CS[C@H]34)c3ccccc3)c(O)n2)cc1 (mixture of isomers) [Example 20, N-[2-[4-(N-Acetyl-DL-alanylamino)phenyl]-4-hydroxy-5-pyrimidinylcarbonyl]-7-[D-2-amino-2-phenylacetamido]-3-carbamoyloxymethyl-3-cephem-4-carboxylic acid] | > 50 µg/mL | > 50 µg/mL | 6.3 µg/mL | 6.3 µg/mL | 12.5 µg/mL | 50 µg/mL | 1.6 µg/mL | 25 µg/mL | 3.1 µg/mL | > 50 µg/mL | 12.5 µg/mL | 25 µg/mL |
| CC(=O)N[C@H](C)C(=O)Nc1ccc(-c2ncc(C(=O)N[C@@H](C(=O)NC3C(=O)N4C(C(=O)O)=C(CSc5nnnn5C)CSC34)c3ccccc3)c(O)n2)cc1 (stereo partly drawn) [Example 25, N-[2-[4-(N-Acetyl-D-alanylamino)phenyl]-4-hydroxy-5-pyrimidinylcarbonyl]-7-[D-2-amino-2-phenylacetamido]-3-[[(1-methyl-1H-tetrazol-5-yl)thio]methyl]-3-cephem-4-carboxylic acid] | 50 µg/mL (≈ 63.5 µM) | 6.3 µg/mL (≈ 8 µM) | 3.1 µg/mL (≈ 3.93 µM) | 6.3 µg/mL (≈ 8 µM) | 3.1 µg/mL (≈ 3.93 µM) | 6.3 µg/mL (≈ 8 µM) | 1.6 µg/mL (≈ 2.03 µM) | 12.5 µg/mL (≈ 15.9 µM) | 6.3 µg/mL (≈ 8 µM) | > 50 µg/mL | 6.3 µg/mL (≈ 8 µM) | 3.1 µg/mL (≈ 3.93 µM) |
| CC(=O)N[C@H](C)C(=O)Nc1ccc(-c2ncc(C(=O)N[C@@H](C(=O)N[C@@H]3C(=O)N4C(C(=O)O)=C(COC(C)=O)CS[C@H]34)c3cccs3)c(O)n2)cc1 [Example 19, N-[2-[4-(N-Acetyl-D-alanylamino)phenyl]-4-hydroxy-5-pyrimidinylcarbonyl]-7-[D-2-amino-2-(2-thienyl)acetamido]-3-acetoxymethyl-3-cephem-4-carboxylic acid] | > 50 µg/mL | 50 µg/mL (≈ 67.8 µM) | 6.3 µg/mL (≈ 8.54 µM) | 6.3 µg/mL (≈ 8.54 µM) | 12.5 µg/mL (≈ 16.9 µM) | > 50 µg/mL | 0.8 µg/mL (≈ 1.08 µM) | 25 µg/mL (≈ 33.9 µM) | 1.6 µg/mL (≈ 2.17 µM) | 25 µg/mL (≈ 33.9 µM) | 6.3 µg/mL (≈ 8.54 µM) | 12.5 µg/mL (≈ 16.9 µM) |
| CC(=O)NCC(=O)Nc1ccc(-c2ncc(C(=O)N[C@@H](C(=O)NC3C(=O)N4C(C(=O)O)=C(CSc5nnc(C)s5)CSC34)c3ccccc3)c(O)n2)cc1 (stereo partly drawn) [Example 39, N-[2-[4-(N-Acetylglycylamino)phenyl]-4-hydroxy-5-pyrimidinylcarbonyl]-7-[D-2-amino-2-phenylacetamido]-3-[[(5-methyl-1,3,4-thiadiazol-2-yl)thio]methyl]-3-cephem-4-carboxylic acid] | 50 µg/mL (≈ 63.3 µM) | 6.3 µg/mL (≈ 7.98 µM) | 12.5 µg/mL (≈ 15.8 µM) | 25 µg/mL (≈ 31.7 µM) | 1.6 µg/mL (≈ 2.03 µM) | 12.5 µg/mL (≈ 15.8 µM) | 0.8 µg/mL (≈ 1.01 µM) | 6.3 µg/mL (≈ 7.98 µM) | 3.1 µg/mL (≈ 3.92 µM) | 50 µg/mL (≈ 63.3 µM) | 25 µg/mL (≈ 31.7 µM) | 1.6 µg/mL (≈ 2.03 µM) |
| CC(=O)NC(C)(C)C(=O)Nc1ccc(-c2ncc(C(=O)N[C@@H](C(=O)N[C@@H]3C(=O)N4C(C(=O)O)=C(COC(C)=O)CS[C@H]34)c3ccccc3)c(O)n2)cc1 [Example 2, N-[2-[4-(N-Acetyl-alpha-aminoisobutyrylamino)phenyl)-4-hydroxy-5-pyrimidinylcarbonyl]-7-[D-2-amino-2-phenylacetamido]-3-acetoxymethyl-3-cephem-4-carboxylic acid] | > 50 µg/mL | 50 µg/mL (≈ 67 µM) | 1.6 µg/mL (≈ 2.15 µM) | 3.1 µg/mL (≈ 4.16 µM) | 25 µg/mL (≈ 33.5 µM) | 50 µg/mL (≈ 67 µM) | 3.1 µg/mL (≈ 4.16 µM) | 25 µg/mL (≈ 33.5 µM) | 12.5 µg/mL (≈ 16.8 µM) | > 50 µg/mL | 6.3 µg/mL (≈ 8.45 µM) | 25 µg/mL (≈ 33.5 µM) |
| CC(=O)NC(C)C(=O)Nc1ccc(-c2ncc(C(=O)N[C@@H](C(=O)NC3C(=O)N4C(C(=O)O)=C(CSc5nnnn5C)CSC34)c3ccc(O)cc3)c(O)n2)cc1 (mixture of isomers) [Example 32, N-[2-[4-(N-Acetyl-DL-alanylamino)phenyl]-4-hydroxy-5-pyrimidinylcarbonyl]-7-[D-2-amino-2-(4-hydroxyphenyl)acetamido]-3-[[(1-methyl-1H-tetrazol-5-yl)thio]methyl]-3-cephem-4-carboxylic acid] | > 50 µg/mL | 6.3 µg/mL | 3.1 µg/mL | 6.3 µg/mL | 1.6 µg/mL | 6.3 µg/mL | 3.1 µg/mL | 12.5 µg/mL | 6.3 µg/mL | 50 µg/mL | 6.3 µg/mL | 1.6 µg/mL |
